Results reported in patent US20210255193A1, “LYSINE REACTIVE PROBES AND USES THEREOF” (The Scripps Research Institute, priority 2017, published 2021).
Blank lines part the entries; values can stand above or below the compound they belong to.

Experiments:
[1] = target: T1, AGFG1 Arf-GAP domain and FG repeat-containing protein 1 (Homo sapiens, UniProt P52594); assay: competitive isoTOP-ABPP; type: binding; design: key to isoTOP-ABPP reactivity ratio at lysine P52594_K134: R = MS1 peak area ratio, DMSO (heavy) / compound-treated (light); details: for isoTOP-ABPP ratio (R) at liganded lysine P52594_K134: sol, 231
T1 construct: isoTOP-ABPP experiments performed in cell lysates (in vitro); endogenous in cells; host or cells: soluble proteome of human cancer cell lines (MDA-MB-231, Ramos, Jurkat)
T1 sequence (P52594 1-562): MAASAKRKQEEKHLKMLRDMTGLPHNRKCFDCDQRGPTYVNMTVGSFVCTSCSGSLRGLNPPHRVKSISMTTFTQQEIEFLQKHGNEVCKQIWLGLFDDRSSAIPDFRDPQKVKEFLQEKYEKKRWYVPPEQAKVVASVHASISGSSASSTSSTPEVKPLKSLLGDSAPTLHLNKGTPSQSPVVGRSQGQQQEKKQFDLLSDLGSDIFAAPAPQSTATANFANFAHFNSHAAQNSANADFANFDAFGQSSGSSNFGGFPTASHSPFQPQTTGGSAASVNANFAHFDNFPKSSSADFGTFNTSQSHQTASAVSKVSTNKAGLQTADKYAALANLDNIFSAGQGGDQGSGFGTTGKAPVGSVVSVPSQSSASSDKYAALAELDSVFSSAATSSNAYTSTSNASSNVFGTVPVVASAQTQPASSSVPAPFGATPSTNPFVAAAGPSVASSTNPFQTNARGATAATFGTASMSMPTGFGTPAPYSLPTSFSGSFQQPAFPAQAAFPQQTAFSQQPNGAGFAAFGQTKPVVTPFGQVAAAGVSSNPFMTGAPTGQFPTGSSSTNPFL
Experimental: (§1) In vitro covalent fragment treatment for isoTOP-ABPP. All compounds were made up as solutions in DMSO (100×) and were used at a final concentration of 50 μM for activated esters and 100 μM for guanidinylating agents. For each profiling sample, 0.5 ml of lysate was treated with 5 μl of the 100× compound stock solution or 5 μl of DMSO. Samples were treated with activated esters for
(§2) STP-alkyne labeling and click chemistry. For concentration-dependent reactivity measurements by isoTOP-ABPP, 0.5 ml proteome aliquots were treated at ambient temperature with 1 mM STP-alkyne 1 (5 μl of 100 mM stock in DMSO) and 0.1 mM STP alkyne 1 (5 μl of 10 mM stock in DMSO), respectively. For competitive isoTOP-ABPP, after in vitro fragment treatment (detailed above), the samples were labeled for 1 h at ambient temperature with 0.1 mM STP-alkyne 1 (5 μl of 10 mM stock in DMSO). Samples were conjugated by copper-mediated azide-alkyne cycloaddition (CuAAC) to either the light (1 mM STP-alkyne or fragment treated) or heavy (0.1 mM STP-alkyne or DMSO treated) TEV tags (10 μl of 5 mM stocks in DMSO, final concentration=100 μM) using tris(2-carboxyethyl)phosphine hydrochloride
(§3) R value calculation and processing. The ratios of light and heavy MS1 peaks for each unique peptide were quantified with a CIMAGE software using default parameters (3 MS1 acquisitions per peak and signal to noise threshold set to 2.5). For reactivity measurements by isoTOP-ABPP, the R value was calculated from the ratio of MS1 peak areas, comparing the 1 mM STP alkyne sample (light TEV tag) with the 0.1 mM STP alkyne sample (heavy TEV tag). For competitive isoTOP-ABPP, the R value was calculated from the ratio of MS1 peak areas, comparing the DMSO treated sample (heavy TEV tag) with the compound treated sample (light TEV tag). […] Ratios for unique peptide entries are calculated for each experiment; overlapping peptides with the same modified lysine (for example, different charge states, MudPIT chromatographic steps or tryptic termini) are grouped together and the median ratio is reported as the final ratio (R). The peptide ratios reported by CIMAGE were further filtered to ensure the removal or correction of low-quality ratios in each individual data set. The quality filters applied were the following: removal of half tryptic peptides; for ratios with high standard deviations from the median (90% of the median or above) the lowest ratio was taken instead of the median; removal of peptides with R=20 and only a single MS2 event triggered during the elution of the parent ion; manual annotation of all the peptides with ratios of 20, removing any peptides with low quality elution profiles that remained after the previous curation steps (only done for competitive isoTOP-ABPP).
(§4) Cross-data processing for fragment screening. For compound treated samples, biological replicates of the same condition were averaged, if the standard deviation was below 60% of the mean; otherwise, for lysines with at least one R value <4 for a particular compound, the lowest value of the ratio set was taken. For lysines, where all R values for a particular compound were ≥4, the average was reported. For peptides containing several possible modified lysines, the lysine with the highest number of quantification events was used for analysis and the remaining, redundant peptides were reported as alternative modification sites. Peptides included in the aggregate dataset (those used for further bioinformatics and statistical analyses) were required to have been quantified in 2 experiments for competitive isoTOP-ABPP. Lysines were categorized as liganded, if they had at least one ratio R≥4 (hit fragments). For liganded lysines with R=20 for all liganding events, lysines were required to have been quantified with R=20 in two separate experiments and were further required to have been quantified with R<20 in one additional experiment.

[2] = target: T2, HDHD3 Haloacid dehalogenase-like hydrolase domain-containing protein 3 (Homo sapiens, UniProt Q9BSH5); assay: competitive isoTOP-ABPP; type: binding; design: key to isoTOP-ABPP reactivity ratio at lysine Q9BSH5_K15: R = MS1 peak area ratio, DMSO (heavy) / compound-treated (light); details: for isoTOP-ABPP ratio (R) at liganded lysine Q9BSH5_K15: sol, 231
T2 construct: isoTOP-ABPP experiments performed in cell lysates (in vitro); endogenous in cells; host or cells: soluble proteome of human cancer cell lines (MDA-MB-231; Ramos and Jurkat also prepared)
T2 sequence (Q9BSH5 1-251): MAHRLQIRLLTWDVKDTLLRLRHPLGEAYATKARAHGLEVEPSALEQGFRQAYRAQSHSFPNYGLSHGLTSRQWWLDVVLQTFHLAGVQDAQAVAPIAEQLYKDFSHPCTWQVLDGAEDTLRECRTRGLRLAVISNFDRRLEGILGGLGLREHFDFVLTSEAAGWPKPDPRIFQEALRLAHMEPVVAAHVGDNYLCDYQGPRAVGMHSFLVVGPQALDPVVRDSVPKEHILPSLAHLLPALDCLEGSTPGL
Experimental: as §1, §2, §3, §4

SMILES: N#Cc1ccc(C(=O)Oc2ccc([N+](=O)[O-])cc2[N+](=O)[O-])cc1 [fragment 44, 2,4-Dinitrophenyl 4-cyanobenzoate]
isoTOP-ABPP ratio, lysine P52594_K134 ([1]; 50 uM_231_sol_in vitro): 1.5 | isoTOP-ABPP ratio, lysine Q9BSH5_K15 ([2]; 50 uM_231_sol_in vitro): 20.0

SMILES: O=C(Oc1ccc([N+](=O)[O-])cc1[N+](=O)[O-])C1CCN(C(=O)OCc2ccccc2)CC1 [fragment 34, 1-Benzyl 4-(2,4-dinitrophenyl) piperidine-1,4-dicarboxylate]
isoTOP-ABPP ratio (R) at liganded lysine P52594_K134 ([1]; 50 uM, in vitro): 20.0 | isoTOP-ABPP ratio (R) at liganded lysine Q9BSH5_K15 ([2]; 50 uM, in vitro): 4.1

SMILES: O=C(CC12CC3CC(CC(C3)C1)C2)Oc1ccc([N+](=O)[O-])cc1[N+](=O)[O-] [fragment 38, 2,4-Dinitrophenyl 2-(adamantan-1-yl)acetate]
isoTOP-ABPP ratio (R) at liganded lysine P52594_K134 ([1]; 50 uM, in vitro): 1.4 | isoTOP-ABPP ratio (R) at liganded lysine Q9BSH5_K15 ([2]; 50 uM, in vitro): 1.2

SMILES: CC(C)(C)OC(=O)N=C(NC(=O)OC(C)(C)C)n1cccn1 [fragment 50, reference compound]
isoTOP-ABPP ratio, lysine P52594_K134 ([1]; 100 uM_231_sol_in vitro): 1.0 | isoTOP-ABPP ratio, lysine Q9BSH5_K15 ([2]; 100 uM_231_sol_in vitro): 2.8

SMILES: O=C(CCc1coc2cc(F)ccc2c1=O)Oc1ccc([N+](=O)[O-])cc1[N+](=O)[O-] [fragment 36, 2,4-Dinitrophenyl 3-(7-fluoro-4-oxo-4H-chromen-3-yl)propanoate]
isoTOP-ABPP ratio (R) at liganded lysine P52594_K134 ([1]; 50 uM, in vitro): 20.0 | isoTOP-ABPP ratio (R) at liganded lysine Q9BSH5_K15 ([2]; 50 uM, in vitro): 10.4

SMILES: COC(=O)NC(=NC(=O)OCC1c2ccccc2-c2ccccc21)n1cccn1 [fragment 49, N-Methoxycarbonyl-N′-9-fluorenylmethoxycarbonyl-pyrazole-1-carboxamidine]
isoTOP-ABPP ratio, lysine P52594_K134 ([1]; 100 uM_231_sol_in vitro): 0.8 | isoTOP-ABPP ratio, lysine Q9BSH5_K15 ([2]; 100 uM_231_sol_in vitro): 3.5

SMILES: O=C(CCc1cn(-c2ccccc2)nc1-c1ccccc1)Oc1c(F)c(F)c(F)c(F)c1F [fragment 19, Pentafluorophenyl 3-(1,3-diphenyl-1H-pyrazol-4-yl)propanoate]
R value (DMSO/fragment) for probe 1 labeling ([1]; P52594_K134, 50 uM, 231 sol, in vitro): 1.0 | R value (DMSO/fragment) for probe 1 labeling ([2]; Q9BSH5_K15, 50 uM, 231 sol, in vitro): 20.0

More lines, now with the values ahead:

isoTOP-ABPP ratio, lysine P52594_K134 ([1]; 50 uM_231_sol_in vitro): 0.9 | isoTOP-ABPP ratio, lysine Q9BSH5_K15 ([2]; 50 uM_231_sol_in vitro): 0.8
SMILES: NC(=O)c1cc(C(F)(F)F)cc(C(F)(F)F)c1 [fragment 51, reference compound]

isoTOP-ABPP reactivity ratio at lysine P52594_K134 ([1]; 50 uM, 231 sol, in vitro): 2.2 | isoTOP-ABPP reactivity ratio at lysine Q9BSH5_K15 ([2]; 50 uM, 231 sol, in vitro): 3.4
SMILES: O=C(CCc1coc2cc(F)ccc2c1=O)Oc1c(F)c(F)c(F)c(F)c1F [fragment 26, Pentafluorophenyl 3-(7-fluoro-4-oxo-4H-chromen-3-yl)propanoate]

isoTOP-ABPP reactivity ratio at lysine P52594_K134 ([1]; 50 uM, 231 sol, in vitro): 1.0 | isoTOP-ABPP reactivity ratio at lysine Q9BSH5_K15 ([2]; 50 uM, 231 sol, in vitro): 13.8
SMILES: CCn1cc(C(=O)Oc2c(F)c(F)c(F)c(F)c2F)c(=O)c2ccc(C)nc21 [fragment 28, Pentafluorophenyl 1-ethyl-7-methyl-4-oxo-1,4-dihydro-1,8-naphthyridine-3-carboxylate]

isoTOP-ABPP ratio, lysine P52594_K134 ([1]; 50 uM_231_sol_in vitro): 1.0 | isoTOP-ABPP ratio, lysine Q9BSH5_K15 ([2]; 50 uM_231_sol_in vitro): 1.0
SMILES: O=C(Oc1c(F)c(F)cc(F)c1F)c1cc(C(F)(F)F)cc(C(F)(F)F)c1 [fragment 48, 2,3,5,6-Tetrafluorophenyl 3,5-bis(trifluoromethyl)benzoate]
